Results from ChEMBL document CHEMBL3044774, “Synthesis of D-glucosamine quaternary ammonium derivatives and evaluation of their antifungal activity together with aminodeoxyglucose derivatives against two wood fungi Coriolus versicolor and Poria placenta: structure-activity relationships” (2011).

Tests used:
Format in all cases: functional
Poria [1] = test: Antifungal activity against Poria placenta FPRL 280 assessed as mycelial growth inhibition at 0.75 x 10^-4 mol/ml after 9 days relative to control
Trametes versicolor [2] = test: Antifungal activity against Trametes versicolor Quel. CTB 863-A assessed as mycelial growth inhibition at 1.5 x 10^-4 mol/ml after 9 days relative to control
Trametes versicolor [3] = test: Antifungal activity against Trametes versicolor Quel. CTB 863-A assessed as mycelial growth inhibition at 1 x 10^-4 mol/ml after 9 days relative to control
Poria [4] = test: Antifungal activity against Poria placenta FPRL 280 assessed as mycelial growth inhibition at 0.5 x 10^-4 mol/ml after 9 days relative to control

SMILES	growth inhibition (GI) (Poria [1]) [%]	growth inhibition (GI) (Trametes versicolor [2]) [%]	growth inhibition (GI) (Trametes versicolor [3]) [%]	growth inhibition (GI) (Poria [4]) [%]
CC(=O)OC[C@H]1OC(OC(C)=O)[C@H](N(C)C)[C@@H](OC(C)=O)[C@@H]1OC(C)=O (stereo partly specified)	48.2	34.9		
N[C@@H]1O[C@H](CO)[C@@H](O)[C@H](O)[C@H]1O	100	82.4	50.6	81.6
N[C@H]1[C@H](O)[C@@H](CO)OC(O)[C@@H]1O (stereo partly specified)	26.7	14.9	0	18.4
NC[C@H]1O[C@@H](O)[C@H](O)[C@@H](O)[C@@H]1O	31.7	19.2	6.7	27.1
CC(=O)OC[C@H]1OC(OC(C)=O)[C@H]([N+](C)(C)C)[C@@H](OC(C)=O)[C@@H]1OC(C)=O (stereo partly specified)	74.1	45.9		
CCN[C@H]1C(OC(C)=O)O[C@H](COC(C)=O)[C@@H](OC(C)=O)[C@@H]1OC(C)=O (stereo partly specified)		53.7		
CC[N+](C)(C)[C@H]1C(OC(C)=O)O[C@H](COC(C)=O)[C@@H](OC(C)=O)[C@@H]1OC(C)=O (stereo partly specified)	80	74.9		
CCN[C@H]1C(O)O[C@H](CO)[C@@H](O)[C@@H]1O (stereo partly specified)	47.1	40.4		
CC[N+](C)(C)[C@H]1C(O)O[C@H](CO)[C@@H](O)[C@@H]1O.O=S(=O)([O-])O (stereo partly specified)	77.2	64.4		
CC(=O)OC[C@H]1OC(OC(C)=O)[C@H](NC2CCCCC2)[C@@H](OC(C)=O)[C@@H]1OC(C)=O (stereo partly specified)	91.8	87.9		
CC(=O)OC[C@H]1OC(OC(C)=O)[C@H]([N+](C)(C)C2CCCCC2)[C@@H](OC(C)=O)[C@@H]1OC(C)=O (stereo partly specified)	100	100		
N[C@H]1C(O)O[C@H](CO)[C@@H](O)[C@@H]1O (stereo partly specified) [GLUCOSAMINE]	25.9	11	0	10.2
